Assays:
[1] = GPCRScan assay: inhibition of GABA/PBR; set-up: species or system Rattus norvegicus; radioligand conc. used [nm] 0.3 – 2.0, parental cells brain tissue
[2] = target: T1, Sodium-dependent dopamine transporter (Homo sapiens, UniProt Q01959); assay: Functional Assay: Platelet-rich plasma SLC6A3/cAMP; assay type: cell-free
[3] = target: Activin receptor type-1 (Homo sapiens) (UniProt Q04771); conditions: Compound concentration 1000.0 nM
[4] = target: Calcium/calmodulin-dependent protein kinase type II subunit delta (Homo sapiens) (UniProt Q13557); conditions: Compound concentration 1000.0 nM
[5] = target: Cyclin-dependent kinase 2 (Homo sapiens) (UniProt P24941); conditions: Compound concentration 1000.0 nM
[6] = target: Cyclin-dependent kinase 4 (Homo sapiens) (UniProt P11802); conditions: Compound concentration 1000.0 nM
[7] = target: Cyclin-dependent kinase-like 1 (Homo sapiens) (UniProt Q00532); conditions: Compound concentration 1000.0 nM
[8] = target: Casein kinase II subunit alpha (Homo sapiens) (UniProt P68400); conditions: Compound concentration 1000.0 nM
[9] = target: Ephrin type-A receptor 2 (Homo sapiens) (UniProt P29317); conditions: Compound concentration 1000.0 nM
Chain of Ephrin type-A receptor 2 (Homo sapiens) (P29317 whole entry): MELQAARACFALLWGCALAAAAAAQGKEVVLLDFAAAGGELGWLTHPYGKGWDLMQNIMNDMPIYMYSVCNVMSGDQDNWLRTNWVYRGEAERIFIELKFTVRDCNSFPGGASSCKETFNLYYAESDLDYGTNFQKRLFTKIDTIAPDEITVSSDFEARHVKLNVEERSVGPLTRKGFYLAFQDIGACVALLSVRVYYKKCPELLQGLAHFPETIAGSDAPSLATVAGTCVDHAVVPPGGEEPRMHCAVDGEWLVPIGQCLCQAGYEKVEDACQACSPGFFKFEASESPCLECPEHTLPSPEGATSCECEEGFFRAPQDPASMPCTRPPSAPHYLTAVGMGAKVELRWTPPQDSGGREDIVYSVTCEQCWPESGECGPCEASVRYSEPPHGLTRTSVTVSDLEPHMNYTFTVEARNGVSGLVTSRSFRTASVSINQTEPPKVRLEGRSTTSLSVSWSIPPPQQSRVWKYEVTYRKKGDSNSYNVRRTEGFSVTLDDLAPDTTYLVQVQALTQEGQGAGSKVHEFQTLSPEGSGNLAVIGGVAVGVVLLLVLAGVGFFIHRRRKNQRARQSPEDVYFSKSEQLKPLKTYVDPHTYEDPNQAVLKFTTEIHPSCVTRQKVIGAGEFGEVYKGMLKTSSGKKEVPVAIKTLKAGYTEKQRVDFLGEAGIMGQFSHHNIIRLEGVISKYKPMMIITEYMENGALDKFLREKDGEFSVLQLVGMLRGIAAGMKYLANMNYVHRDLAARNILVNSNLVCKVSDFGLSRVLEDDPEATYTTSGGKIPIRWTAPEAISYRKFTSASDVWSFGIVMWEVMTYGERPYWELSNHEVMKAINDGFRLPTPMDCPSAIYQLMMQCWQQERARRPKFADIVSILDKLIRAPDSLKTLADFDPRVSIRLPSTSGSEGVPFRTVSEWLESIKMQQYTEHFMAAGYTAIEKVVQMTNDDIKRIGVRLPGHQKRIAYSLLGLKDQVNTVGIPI

[10] = target: Ephrin type-A receptor 8 (Homo sapiens) (UniProt P29322); conditions: Compound concentration 1000.0 nM
[11] = target: Ephrin type-B receptor 2 (Homo sapiens) (UniProt P29323); conditions: Compound concentration 1000.0 nM
[12] = target: Receptor tyrosine-protein kinase erbB-2 (Homo sapiens) (UniProt P04626); conditions: Compound concentration 1000.0 nM
[13] = target: Mitogen-activated protein kinase 4 (Homo sapiens) (UniProt P31152); conditions: Compound concentration 1000.0 nM
[14] = target: Homeodomain-interacting protein kinase 1 (Homo sapiens) (UniProt Q86Z02); conditions: Compound concentration 1000.0 nM
Chain of Homeodomain-interacting protein kinase 1 (Homo sapiens) (Q86Z02 whole entry, looked up): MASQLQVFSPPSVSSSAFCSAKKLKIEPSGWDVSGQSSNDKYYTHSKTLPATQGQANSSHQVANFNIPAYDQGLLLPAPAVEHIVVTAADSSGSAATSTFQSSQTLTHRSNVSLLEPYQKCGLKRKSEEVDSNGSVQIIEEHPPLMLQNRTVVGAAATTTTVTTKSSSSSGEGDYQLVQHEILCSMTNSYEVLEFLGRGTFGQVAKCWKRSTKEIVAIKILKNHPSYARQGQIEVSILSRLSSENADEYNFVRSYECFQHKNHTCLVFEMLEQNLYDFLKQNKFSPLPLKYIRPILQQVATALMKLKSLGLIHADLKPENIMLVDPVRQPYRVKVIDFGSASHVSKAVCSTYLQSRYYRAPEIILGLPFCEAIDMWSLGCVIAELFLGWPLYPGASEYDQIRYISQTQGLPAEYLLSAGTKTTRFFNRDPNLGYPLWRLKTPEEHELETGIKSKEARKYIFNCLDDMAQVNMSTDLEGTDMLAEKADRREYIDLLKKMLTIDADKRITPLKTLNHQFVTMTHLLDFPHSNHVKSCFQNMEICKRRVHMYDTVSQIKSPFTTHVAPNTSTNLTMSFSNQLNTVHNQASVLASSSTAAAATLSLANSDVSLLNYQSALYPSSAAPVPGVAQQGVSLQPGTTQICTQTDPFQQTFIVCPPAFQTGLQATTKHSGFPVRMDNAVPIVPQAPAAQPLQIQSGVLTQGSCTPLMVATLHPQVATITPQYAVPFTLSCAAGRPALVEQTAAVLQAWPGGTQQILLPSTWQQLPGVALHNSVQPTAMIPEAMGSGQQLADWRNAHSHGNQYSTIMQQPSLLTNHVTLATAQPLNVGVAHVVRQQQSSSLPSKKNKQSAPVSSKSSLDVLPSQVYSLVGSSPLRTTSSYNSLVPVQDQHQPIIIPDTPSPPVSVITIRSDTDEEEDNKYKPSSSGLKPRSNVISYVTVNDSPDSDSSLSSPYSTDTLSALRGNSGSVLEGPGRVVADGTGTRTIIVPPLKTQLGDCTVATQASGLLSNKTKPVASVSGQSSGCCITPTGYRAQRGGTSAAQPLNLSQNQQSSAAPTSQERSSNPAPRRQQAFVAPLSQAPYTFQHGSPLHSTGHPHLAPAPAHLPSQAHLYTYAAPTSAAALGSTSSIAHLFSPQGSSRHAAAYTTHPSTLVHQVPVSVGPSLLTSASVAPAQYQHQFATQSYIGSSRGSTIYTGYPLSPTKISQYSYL

[15] = target: Inhibitor of nuclear factor kappa-B kinase subunit alpha (Homo sapiens) (UniProt O15111); conditions: Compound concentration 1000.0 nM
[16] = target: Inhibitor of nuclear factor kappa-B kinase subunit beta (Homo sapiens) (UniProt O14920); conditions: Compound concentration 1000.0 nM
[17] = target: Inhibitor of nuclear factor kappa-B kinase subunit epsilon (Homo sapiens) (UniProt Q14164); conditions: Compound concentration 1000.0 nM
[18] = target: Tyrosine-protein kinase JAK2 (Homo sapiens) (UniProt O60674); conditions: Compound concentration 1000.0 nM
[19] = target: MAP kinase-activated protein kinase 2 (Homo sapiens) (UniProt P49137); conditions: Compound concentration 1000.0 nM
[20] = target: Hepatocyte growth factor receptor (Homo sapiens) (UniProt P08581); conditions: Compound concentration 1000.0 nM
[21] = system: Hepatocyte growth factor receptor (Homo sapiens), P08581 [Y1235D]; conditions: Compound concentration 1000.0 nM
[22] = target: Serine/threonine-protein kinase Nek5 (Homo sapiens) (UniProt Q6P3R8); conditions: Compound concentration 1000.0 nM
[23] = target: Serine/threonine-protein kinase Nek9 (Homo sapiens) (UniProt Q8TD19); conditions: Compound concentration 1000.0 nM
Chain of Serine/threonine-protein kinase Nek9 (Homo sapiens) (Q8TD19 whole entry): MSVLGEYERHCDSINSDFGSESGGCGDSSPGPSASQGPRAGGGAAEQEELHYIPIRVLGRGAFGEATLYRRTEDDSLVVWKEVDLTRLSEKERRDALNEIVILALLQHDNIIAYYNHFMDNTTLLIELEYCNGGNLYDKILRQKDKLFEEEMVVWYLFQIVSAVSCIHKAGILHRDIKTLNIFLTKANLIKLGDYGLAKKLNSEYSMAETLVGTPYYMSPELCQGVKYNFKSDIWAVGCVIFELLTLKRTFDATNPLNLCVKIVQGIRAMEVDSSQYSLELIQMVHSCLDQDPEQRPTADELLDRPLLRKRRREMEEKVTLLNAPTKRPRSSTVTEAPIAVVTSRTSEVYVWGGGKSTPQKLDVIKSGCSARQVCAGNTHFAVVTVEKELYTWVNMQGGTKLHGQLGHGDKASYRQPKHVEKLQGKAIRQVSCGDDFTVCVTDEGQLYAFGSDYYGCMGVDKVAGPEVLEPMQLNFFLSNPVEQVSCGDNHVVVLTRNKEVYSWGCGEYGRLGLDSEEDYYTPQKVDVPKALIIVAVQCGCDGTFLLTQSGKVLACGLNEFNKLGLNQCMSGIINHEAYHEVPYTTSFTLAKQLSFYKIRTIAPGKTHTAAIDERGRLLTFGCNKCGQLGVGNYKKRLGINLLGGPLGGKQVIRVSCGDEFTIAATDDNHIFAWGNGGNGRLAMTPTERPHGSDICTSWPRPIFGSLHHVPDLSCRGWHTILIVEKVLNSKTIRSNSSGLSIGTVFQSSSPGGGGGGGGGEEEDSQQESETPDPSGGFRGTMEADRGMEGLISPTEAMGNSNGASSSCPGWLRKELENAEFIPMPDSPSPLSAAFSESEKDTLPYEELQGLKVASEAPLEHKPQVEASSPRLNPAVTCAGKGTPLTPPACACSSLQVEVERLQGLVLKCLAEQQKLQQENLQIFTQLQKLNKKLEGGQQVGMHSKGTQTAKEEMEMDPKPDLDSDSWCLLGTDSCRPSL

[24] = target: Mitogen-activated protein kinase 13 (Homo sapiens) (UniProt O15264); conditions: Compound concentration 1000.0 nM
[25] = system: Phosphatidylinositol 4,5-bisphosphate 3-kinase catalytic subunit alpha isoform (Homo sapiens), P42336 [I800L]; conditions: Compound concentration 1000.0 nM
[26] = target: cAMP-dependent protein kinase catalytic subunit beta (Homo sapiens) (UniProt P22694); conditions: Compound concentration 1000.0 nM
[27] = target: cGMP-dependent protein kinase 2 (Homo sapiens) (UniProt Q13237); conditions: Compound concentration 1000.0 nM
[28] = system: Proto-oncogene tyrosine-protein kinase receptor Ret (Homo sapiens), P07949 [V804M]; conditions: Compound concentration 1000.0 nM
[29] = target: Ribosomal protein S6 kinase alpha-5 (Homo sapiens) (UniProt O75582); conditions: Compound concentration 1000.0 nM
[30] = target: Ribosomal protein S6 kinase beta-1 (Homo sapiens) (UniProt P23443); conditions: Compound concentration 1000.0 nM
Chain of Ribosomal protein S6 kinase beta-1 (Homo sapiens) (P23443 whole entry, looked up): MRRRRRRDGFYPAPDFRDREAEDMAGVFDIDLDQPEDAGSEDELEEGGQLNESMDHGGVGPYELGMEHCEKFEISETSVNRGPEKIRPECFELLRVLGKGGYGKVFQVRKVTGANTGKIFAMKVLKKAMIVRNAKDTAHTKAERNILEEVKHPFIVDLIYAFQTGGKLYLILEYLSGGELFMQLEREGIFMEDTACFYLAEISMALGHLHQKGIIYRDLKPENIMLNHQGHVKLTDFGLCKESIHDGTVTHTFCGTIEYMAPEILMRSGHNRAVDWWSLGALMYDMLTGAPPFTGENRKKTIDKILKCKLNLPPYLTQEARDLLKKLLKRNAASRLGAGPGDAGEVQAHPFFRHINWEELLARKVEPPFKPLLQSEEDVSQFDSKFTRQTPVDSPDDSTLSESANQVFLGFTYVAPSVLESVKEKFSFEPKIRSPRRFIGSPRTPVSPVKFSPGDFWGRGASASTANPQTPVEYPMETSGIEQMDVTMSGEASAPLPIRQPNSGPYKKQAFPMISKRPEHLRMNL

[31] = target: Serine/threonine-protein kinase SBK1 (Homo sapiens) (UniProt Q52WX2); conditions: Compound concentration 1000.0 nM
Chain of Serine/threonine-protein kinase SBK1 (Homo sapiens) (Q52WX2 whole entry): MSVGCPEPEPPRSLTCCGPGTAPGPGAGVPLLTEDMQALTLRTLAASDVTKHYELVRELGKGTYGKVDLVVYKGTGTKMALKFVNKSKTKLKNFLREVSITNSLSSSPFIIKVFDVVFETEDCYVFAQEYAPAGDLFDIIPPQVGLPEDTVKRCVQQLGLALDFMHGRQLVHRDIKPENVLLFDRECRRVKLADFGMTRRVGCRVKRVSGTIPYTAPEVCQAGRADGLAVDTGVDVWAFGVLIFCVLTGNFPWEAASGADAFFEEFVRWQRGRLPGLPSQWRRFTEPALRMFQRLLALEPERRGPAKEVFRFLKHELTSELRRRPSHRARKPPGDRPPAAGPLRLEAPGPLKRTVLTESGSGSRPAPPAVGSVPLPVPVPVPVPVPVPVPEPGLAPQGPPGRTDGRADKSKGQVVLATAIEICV

[32] = target: Serine/threonine-protein kinase Sgk1 (Homo sapiens) (UniProt O00141); conditions: Compound concentration 1000.0 nM
Chain of Serine/threonine-protein kinase Sgk1 (Homo sapiens) (O00141 whole entry): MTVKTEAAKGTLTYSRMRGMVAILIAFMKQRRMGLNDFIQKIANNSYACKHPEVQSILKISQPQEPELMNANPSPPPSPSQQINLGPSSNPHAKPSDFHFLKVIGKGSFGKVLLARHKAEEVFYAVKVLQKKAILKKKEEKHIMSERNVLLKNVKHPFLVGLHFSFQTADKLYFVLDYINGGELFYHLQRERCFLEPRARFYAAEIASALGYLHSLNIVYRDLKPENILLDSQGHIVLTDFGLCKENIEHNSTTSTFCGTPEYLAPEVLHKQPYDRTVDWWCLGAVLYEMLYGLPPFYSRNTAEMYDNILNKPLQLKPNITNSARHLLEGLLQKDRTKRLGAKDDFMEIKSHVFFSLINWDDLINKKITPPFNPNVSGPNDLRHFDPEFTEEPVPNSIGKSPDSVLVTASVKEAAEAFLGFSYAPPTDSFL

[33] = target: SNF-related serine/threonine-protein kinase (Homo sapiens) (UniProt Q9NRH2); conditions: Compound concentration 1000.0 nM
[34] = target: SRSF protein kinase 2 (Homo sapiens) (UniProt P78362); conditions: Compound concentration 1000.0 nM
[35] = target: 5-hydroxytryptamine receptor 1E (Homo sapiens) (UniProt P28566); conditions: Compound concentration 10.0 uM
[36] = target: 5-hydroxytryptamine receptor 2B (Homo sapiens) (UniProt P41595); conditions: Compound concentration 10.0 uM
[37] = target: T1, Sodium-dependent dopamine transporter; conditions: Compound concentration 10.0 uM
[38] = target: Alpha-1B adrenergic receptor (Homo sapiens) (UniProt P35368); conditions: Compound concentration 10.0 uM
[39] = target: Alpha-2A adrenergic receptor (Homo sapiens) (UniProt P08913); conditions: Compound concentration 10.0 uM
[40] = target: Alpha-2C adrenergic receptor (Homo sapiens) (UniProt P18825); conditions: Compound concentration 10.0 uM
[41] = target: Muscarinic acetylcholine receptor M4 (Homo sapiens) (UniProt P08173); conditions: Compound concentration 10.0 uM
[42] = system: Tyrosine-protein kinase ABL1 (Homo sapiens), P00519 [E255K]; conditions: Compound concentration 1000.0 nM
[43] = system: Tyrosine-protein kinase ABL1 (Homo sapiens), P00519 [F317I]; conditions: Compound concentration 1000.0 nM
[44] = system: Tyrosine-protein kinase ABL1 (Homo sapiens), P00519 [Q252H]; conditions: Compound concentration 1000.0 nM
[45] = system: Serine/threonine-protein kinase B-raf (Homo sapiens), P15056 [V600E]; conditions: Compound concentration 1000.0 nM
D(2) dopamine receptor = D(2) dopamine receptor (Homo sapiens, UniProt P14416); conditions: Compound concentration 10.0 uM

Chain of Activin receptor type-1 (Homo sapiens) (Q04771 whole entry): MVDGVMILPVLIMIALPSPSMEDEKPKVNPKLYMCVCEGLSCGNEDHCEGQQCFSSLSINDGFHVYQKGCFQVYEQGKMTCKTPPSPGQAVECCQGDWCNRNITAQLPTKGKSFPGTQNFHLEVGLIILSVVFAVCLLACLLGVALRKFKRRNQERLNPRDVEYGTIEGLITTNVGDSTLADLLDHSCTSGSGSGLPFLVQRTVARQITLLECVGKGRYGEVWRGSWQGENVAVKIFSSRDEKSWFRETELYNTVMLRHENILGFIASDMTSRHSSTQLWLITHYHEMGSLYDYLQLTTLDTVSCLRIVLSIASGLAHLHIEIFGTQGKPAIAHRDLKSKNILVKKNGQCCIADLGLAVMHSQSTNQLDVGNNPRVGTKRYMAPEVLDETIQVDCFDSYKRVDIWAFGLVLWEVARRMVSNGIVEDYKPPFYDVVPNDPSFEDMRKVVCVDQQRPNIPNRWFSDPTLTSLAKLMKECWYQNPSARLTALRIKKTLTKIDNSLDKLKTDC

CN([C@@H]1CCc2c(CC(=O)O)c3ccccc3n2C1)S(=O)(=O)c1ccc(F)cc1 [MK-7246]
Ki [1]: 1.11 µM
pKi [1]: 5.95
IC50 [2]: 8.69 µM (not active)
residual activity [3]: 100%
residual activity [4]: 100%
residual activity [5]: 100%
residual activity [6]: 100%
residual activity [7]: 100%
residual activity [8]: 82%
residual activity [9]: 100%
residual activity [10]: 100%
residual activity [11]: 100%
residual activity [12]: 100%
residual activity [13]: 100%
residual activity [14]: 100%
residual activity [15]: 100%
residual activity [16]: 98%
residual activity [17]: 84%
residual activity [18]: 100%
residual activity [19]: 100%
residual activity [20]: 100%
residual activity [21]: 100%
residual activity [22]: 100%
residual activity [23]: 100%
residual activity [24]: 91%
residual activity [25]: 79%
residual activity [26]: 100%
residual activity [27]: 100%
residual activity [28]: 98%
residual activity [29]: 95%
residual activity [30]: 100%
residual activity [31]: 100%
residual activity [32]: 100%
residual activity [33]: 100%
residual activity [34]: 100%
inhibition [35]: 35.8%
inhibition [36]: -4.07%
inhibition [37]: 77.1%
inhibition [38]: -8.18%
inhibition [39]: -3.89%
inhibition [40]: -3.1%
inhibition [41]: 24.4%

CN([C@@H]1CCc2c(CC(=O)O)c3cc(S(C)(=O)=O)ccc3n2C1)S(=O)(=O)c1ccc(F)cc1
residual activity [42]: 100%
residual activity [43]: 76%
residual activity [44]: 79%
residual activity [3]: 90%
residual activity [45]: 90%
residual activity [4]: 100%
residual activity [5]: 100%
residual activity [6]: 93%
residual activity [7]: 100%
residual activity [8]: 91%
residual activity [9]: 100%
residual activity [10]: 98%
residual activity [11]: 87%
residual activity [12]: 100%
residual activity [13]: 100%
residual activity [14]: 77%
residual activity [18]: 100%
residual activity [22]: 100%
residual activity [23]: 81%
residual activity [24]: 68%
residual activity [25]: 72%
residual activity [27]: 95%
residual activity [28]: 100%
residual activity [29]: 85%
residual activity [30]: 100%
residual activity [31]: 100%
residual activity [32]: 100%
residual activity [33]: 100%
residual activity [34]: 100%
inhibition [35]: 5.5%
inhibition (D(2) dopamine receptor): -3.84%
inhibition [41]: -1.13%

Reference: ChEMBL document CHEMBL4507290 (2021)
